From patent publication US5854280A, “Antifungal sordaridin derivatives” (Glaxo Wellcome S.A., priority 1994, dated 1998)
In brackets after ≈: the same amount, converted by molar mass.

Columns and labels:
Assay in all cases: in vitro antifungal MIC, two-fold serial dilution
[1] = test system: C. psuedotropicalis 2371E; type: cell-based, Candida pseudotropicalis
Description: (§1) The in vitro evaluation of the anti-fungal activity of compounds of the invention was performed on liquid or solid medium by the anti-fungal two-fold serial dilution technique of determining the minimum inhibitory concentration (MIC) of anti-fungal agent that inhibited development of growth after 24 to 48 hours of incubation at 37° C. In practice, a series of agar plates or broth microdilution panels containing two-fold dilutions of anti-fungal agent tested were inoculated with a standard culture of a clinically relevant pathogen, for example, Candida albicans. The agar plates or broth microdulution panels were then examined for the presence or absence of growth of the fungus and the appropriate MIC values were noted.
(§2) Compounds of formula (I) have been tested for anti fungal activity in a standard in vitro screen and the minimum inhibiting concentration (MIC; μg/ml) determined for each compound against a variety of clinically relevant pathogens.

C. albicans 4711 = type: cell-based, Candida albicans
Description: as §1, §2

C. aibicans 2402E = type: cell-based, Candida albicans
Description: as §1, §2

C. albicans 2005E = type: cell-based, Candida albicans
Description: as §1, §2

C. albicans 1208E = type: cell-based, Candida albicans
Description: as §1, §2

C. neoformans 2867E = type: cell-based, Cryptococcus neoformans
Description: as §1, §2

C. glabrata 2375E = type: cell-based, Candida glabrata
Description: as §1, §2

C. glabrata 2376E = type: cell-based, Candida glabrata
Description: as §1, §2

C. tropicalis 2808E = type: cell-based, Candida tropicalis
Description: as §1, §2

MIC (minimum inhibiting concentration) [1] [µg/mL] | MIC (minimum inhibiting concentration) (C. albicans 4711) [µg/mL] | MIC (minimum inhibiting concentration) (C. aibicans 2402E) [µg/mL] | MIC (minimum inhibiting concentration) (C. albicans 2005E) [µg/mL] | MIC (minimum inhibiting concentration) (C. albicans 1208E) [µg/mL] | MIC (minimum inhibiting concentration) (C. neoformans 2867E) [µg/mL] | MIC (minimum inhibiting concentration) (C. glabrata 2375E) [µg/mL] | MIC (minimum inhibiting concentration) (C. glabrata 2376E) [µg/mL] | MIC (minimum inhibiting concentration) (C. tropicalis 2808E) [µg/mL] | SMILES
0.001 (≈ 0.00199 µM) | 0.004 (≈ 0.00796 µM) | 0.008 (≈ 0.0159 µM) | 0.001 (≈ 0.00199 µM) | 0.004 (≈ 0.00796 µM) | 1.00 (≈ 1.99 µM) | 8.00 (≈ 15.9 µM) | 8.00 (≈ 15.9 µM) | 0.030 (≈ 0.0597 µM) | CCCOC1C(C)OC(OCC23CC4C(C)CCC4C4(C=O)CC2C=C(C(C)C)C43C(=O)O)C2OC12 [Example 52, [1R-(1α,3aβ,4β,4aβ,7β,7aα,8aβ)]8a-[(2,3-Anhydro-6-deoxy-4-O-propyl-β-D-mannopyranosyloxy)methyl]-4-formyl-4,4a,5,6,7,7a,8,8a-octahydro-7-methyl-3-(1-methylethyl)-1,4-methano-s-indacene-3a(1H)-carboxylic acid]
0.004 | ≤ 0.001 | ≤ 0.001 | ≤ 0.001 | ≤ 0.001 | 0.250 | 0.500 | 0.500 | 0.008 | CC(C)C1=CC2CC3(C=O)C4CCC(C)C4CC2(COC2CC4C(C)COC4C(C)O2)C13C(=O)[O-].[Na+] [Example 20, [1R-(1α,3aβ,4β,4aβ,7β,7aα,8aβ)]8a-[[1S,4R,7R,9R]-2,8-Dioxa-4,9-dimethyl-cis-bicyclo[3.4.0]-7-yl-oxy-methyl]-4-formyl-4,4a,5,6,7,7a,8,8a-octahydro-7-methyl-3-(1-methylethyl)-1,4-methano-s-indacene-3a(1H)-carboxylic acid, sodium salt]
0.060 (≈ 0.116 µM) | 0.280 (≈ 0.54 µM) | 0.500 (≈ 0.964 µM) | 0.120 (≈ 0.231 µM) | 0.500 (≈ 0.964 µM) | > 125 | 31.00 (≈ 59.8 µM) | 31.00 (≈ 59.8 µM) | 1.000 (≈ 1.93 µM) | CC(C)C1=CC2CC3(C=O)C4CCC(C)C4CC2(COC2OC(C)C4OC(C)(C)OC4C2O)C13C(=O)O [Example 1, [1R-(1α,3aβ,4β,4aβ,7β,7aα,8aβ)]8a-[(6-Deoxy-3,4-O-isopropylidene-β-D-altropyranosyloxy)methyl]-4-formyl-4,4a,5,6,7,7a,8,8a-octahydro-7-methyl-3-(1-methylethyl)-1,4-methano-s-indacene-3a(1H)-carboxylic acid]
0.01 (≈ 0.0182 µM) | ≤ 0.001 | ≤ 0.001 | ≤ 0.001 | ≤ 0.001 | 2.00 (≈ 3.63 µM) | 8.00 (≈ 14.5 µM) | 8.00 (≈ 14.5 µM) | ≤ 0.001 | CC(C)C1=CC2CC3(C=O)C4CCC(C)C4CC2(COC2OC(C)C(OCc4ccccc4)C4OC24)C13C(=O)O [Example 54, [1R-(1α,3aβ,4β,4aβ,7β,7aα,8aβ)]8a-[(2,3-Anhydro-4-O-benzyl-6-deoxy-β-D-mannopyranosyloxy)methyl]-4-formyl-4,4a,5,6,7,7a,8,8a-octahydro-7-methyl-3-(1-methylethyl)-1,4-methano-s-indacene-3a(1H)-carboxylic acid]
< 0.001 | 0.001 (≈ 0.00212 µM) | 0.001 (≈ 0.00212 µM) | 0.001 (≈ 0.00212 µM) | 0.001 (≈ 0.00212 µM) | 2.00 (≈ 4.25 µM) | 4.00 (≈ 8.5 µM) | 4.00 (≈ 8.5 µM) | 0.500 (≈ 1.06 µM) | CC(C)C1=CC2CC3(C=O)C4CCC(C)C4CC2(COC2CC4=CCOC4C(C)O2)C13C(=O)O [Example 43, [1R-(1α,3aβ,4β,4aβ,7β,7aα,8aβ)]8a-[(1S,7R,9R)-2,8-Dioxa-9-methyl-bicyclo[3,4,0]-non-4-ene-7-yl-oxymethyl]-4-formyl-4,4a,5,6,7,7a,8,8a-octahydro-7-methyl-3-(1-methylethyl)-1,4-methano-s-indacene-3a(1H)-carboxylic acid]
0.060 (≈ 0.123 µM) | 0.030 (≈ 0.0617 µM) | 0.060 (≈ 0.123 µM) | 0.001 (≈ 0.00206 µM) | 0.060 (≈ 0.123 µM) | ≤ 0.250 | 4.00 (≈ 8.22 µM) | 6.00 (≈ 12.3 µM) | 0.500 (≈ 1.03 µM) | CC(C)C1=CC2CC3(C=O)C4CCC(C)C4CC2(COC2CC4C(=O)COC4C(C)O2)C13C(=O)O [Example 37, [1R-(1α,3aβ,4β,4aβ,7β,7aα,8aβ)]8a-[[1S,7R,9R]-2,8-Dioxa-9-methyl-4-oxo-cis-bicyclo[3.4.0]-non-7-yl-oxy-methyl]-4-formyl4,4a,5,6,7,7a,8,8a-octahydro-7-methyl-3-(1-methyl-ethyl)-1,4-methano-s-indacene-3a(1H)-carboxylic acid]
0.008 | 0.015 | 0.015 | 0.008 | 0.015 | 0.500 | 8.00 | 8.00 | 0.120 | CC(C)C1=CC2CC3(C=O)C4CCC(C)C4CC2(COC2CC4OCOC4C(C)O2)C13C(=O)[O-].[Na+] (stereo not drawn) [Example 13]
< 0.001 | 0.001 (≈ 0.00205 µM) | 0.001 (≈ 0.00205 µM) | 0.001 (≈ 0.00205 µM) | 0.001 (≈ 0.00205 µM) | 1.00 (≈ 2.05 µM) | 8.00 (≈ 16.4 µM) | 8.00 (≈ 16.4 µM) | 0.008 (≈ 0.0164 µM) | CC(C)C1=CC2CC3(C=O)C4CCC(C)C4CC2(COC2CC4OCC(C)C4C(C)O2)C13C(=O)O [Example 16, [1R-(1α,3aβ,4β,4aβ,7β,7aα,8aβ)]8a-[[1S,4S,6R,8R]-2,7-Dioxa-4,6-dimethyl-cis-bicyclo[3.4.0]-non-8-yl-oxy-methyl]-4-formyl-4,4a,5,6,7,7a,8,8a-octahydro-7-methyl-3-(1-methylethyl)-1,4-methano-s-indacene-3a(1H)-carboxylic acid]
≤ 0.001 | 0.001 | 0.001 | 0.001 | 0.001 | ≤ 0.250 | 1.000 | 1.000 | 0.150 | C=C1COC2C(C)OC(OCC34CC5C(C)CCC5C5(C=O)CC3C=C(C(C)C)C54C(=O)[O-])CC12.[Na+] [Example 34, [1R-(1α,3aβ,4β,4aβ,7β,7aα,8aβ)]8a-[[1S,7R,9R]-2,8-Dioxa-9-methyl-4-methylene-cis-bicyclo[3.4.0]-non-7-yl-oxy-methyl]-4-formyl-4,4a, 5,6,7,7a,8,8a-octahydro-7-methyl-3-(1-methylethyl)-1,4-methano-s-indacene-3a(1H)-carboxylic acid, sodium salt]

SMILES | MIC (minimum inhibiting concentration) [1] [µg/mL] | MIC (minimum inhibiting concentration) (C. albicans 4711) [µg/mL] | MIC (minimum inhibiting concentration) (C. aibicans 2402E) [µg/mL] | MIC (minimum inhibiting concentration) (C. albicans 2005E) [µg/mL] | MIC (minimum inhibiting concentration) (C. albicans 1208E) [µg/mL] | MIC (minimum inhibiting concentration) (C. neoformans 2867E) [µg/mL] | MIC (minimum inhibiting concentration) (C. glabrata 2375E) [µg/mL] | MIC (minimum inhibiting concentration) (C. glabrata 2376E) [µg/mL] | MIC (minimum inhibiting concentration) (C. tropicalis 2808E) [µg/mL]
CC(C)C1=CC2CC3(C=O)C4CCC(C)C4CC2(COC2CC4OC(C)(C)OC4C(C)O2)C13C(=O)O [Example 6, [1R-(1α,3aβ,4β,4aβ,7β,7aα,8aβ)]8a-[(2,6-Dideoxy-3,4-O-isopropylidene-β-D-allopyranosyloxy)methyl]-4-formyl-4,4a,5,6,7,7a,8,8a-octahydro-7-methyl-3-(1-methylethyl)-4-methano-s-indacene-3a(1H)-carboxylic acid] | 0.004 (≈ 0.00796 µM) | 0.004 (≈ 0.00796 µM) | 0.008 (≈ 0.0159 µM) | 0.001 (≈ 0.00199 µM) | 0.008 (≈ 0.0159 µM) | 8.00 (≈ 15.9 µM) | 31.00 (≈ 61.7 µM) | 31.00 (≈ 61.7 µM) | 0.120 (≈ 0.239 µM)
